Measurements as given in patent publication US12404295B2, “(Hetero)aryl-methyl-thio-beta-D-galactopyranoside derivatives” (Idorsia Pharmaceuticals Ltd, priority 2019, dated 2025).
Where two headings read alike, the source gives them in different places.

Tests used:
human Gal-3 (hGal-3) = human Gal-3 (hGal-3) (Homo sapiens (Human), UniProt P17931); assay: competitive binding assay: biotinylated hGal-3 binding to microplate-adsorbed asialofetuin (ASF)
Procedure, shortened: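 Serial DMSO dilutions of each compound; binding incubation of 3 hours at 4 °C with cold-buffer washes; detection using 80 ng/mL streptavidin-peroxidase for 1 hour, then ABTS. Multiple determinations were averaged to give the IC50.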

human Gal-1 (hGal-1) = human Gal-1 (hGal-1) (Homo sapiens (Human), UniProt P09382); assay: competitive binding assay: biotinylated hGal-1 binding to microplate-adsorbed asialofetuin (ASF); conditions: Table 15; read-out: IC50 (Galectin-1 inhibition)
Procedure, shortened: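 Spectrophotometric competition readout: after compound and biotinylated hGal-1 (300-1000 ng/mL) sit 3 h at 4° C on adsorbed asialofetuin, streptavidin-peroxidase (1 h, 4° C) and ABTS reveal residual binding. Reported IC50 values are means of repeat runs.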

[1] = Gal-3 inhibition, binding of biotinylated hGal-3 to ASF, mean values, read-out: IC50
[2] = Table 14, read-out: IC50 (Gal-3 inhibition)
[3] = Table 5, read-out: IC50 (Gal-3 inhibition)

human Gal-3 (hGal-3), sequence (P17931 whole entry): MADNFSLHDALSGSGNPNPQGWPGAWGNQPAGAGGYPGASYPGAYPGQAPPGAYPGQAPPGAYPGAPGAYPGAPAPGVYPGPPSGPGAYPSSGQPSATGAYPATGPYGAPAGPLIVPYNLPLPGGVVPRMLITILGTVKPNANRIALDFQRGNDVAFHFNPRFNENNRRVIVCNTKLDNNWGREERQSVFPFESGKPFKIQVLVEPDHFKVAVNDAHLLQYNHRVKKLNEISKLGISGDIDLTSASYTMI
human Gal-1 (hGal-1), sequence (P09382 whole entry): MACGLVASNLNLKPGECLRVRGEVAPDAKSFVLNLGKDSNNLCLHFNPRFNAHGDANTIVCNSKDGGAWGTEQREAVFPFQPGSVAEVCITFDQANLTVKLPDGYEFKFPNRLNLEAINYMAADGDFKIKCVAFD

Row | Compound | IC50 (human Gal-3 (hGal-3); [1]) [µM] | IC50 (human Gal-1 (hGal-1)) [µM] | IC50 (human Gal-3 (hGal-3); [2]) [µM] | IC50 (human Gal-3 (hGal-3); Table 10, 2-OMe-Gal inhibitors, read-out: IC50 (Gal-3 inhibition)) [µM] | IC50 (human Gal-3 (hGal-3); [3]) [µM]
1 | Cc1c(F)cc(-c2cn([C@H]3[C@@H](O)[C@@H](CO)O[C@@H](S[C@H](c4ccccc4C(F)(F)F)C(C)(C)O)[C@@H]3O)nn2)cc1F [Example 3.31.112R., (2S,3R,4S,5R,6R)-4-(4-(3,5-Difluoro-4-methylphenyl)-1H-1,2,3-triazol-1-yl)-2-(((R)-2-hydroxy-2-methyl-1-(2-(trifluoromethyl)phenyl)propyl)thio)-6-(hydroxymethyl)tetrahydro-2H-pyran-3,5-diol] | 0.15 | 2.84 | – | – | –
2 | Cc1c(F)cc(-c2cn([C@H]3[C@@H](O)[C@@H](CO)O[C@@H](S[C@@H](c4ccccc4C(F)(F)F)C(C)(C)O)[C@@H]3O)nn2)cc1F [Example 3.31.112S., (2S,3R,4S,5R,6R)-4-(4-(3,5-Difluoro-4-methylphenyl)-1H-1,2,3-triazol-1-yl)-2-(((S)-2-hydroxy-2-methyl-1-(2-(trifluoromethyl)phenyl)propyl)thio)-6-(hydroxymethyl)tetrahydro-2H-pyran-3,5-diol] | 4.85 | 54.2 | – | – | –
3 | CO[C@@H]1[C@@H](n2cc(-c3cc(F)c(C)c(F)c3)nn2)[C@@H](O)[C@@H](CO)O[C@H]1S[C@H](c1ncccc1C)C1(O)CCC(F)(F)CC1 [Example 3.44.126R.I., (2R,3R,4S,5R,6S)-6-(((R)-(4,4-Difluoro-1-hydroxycyclohexyl)(3-methylpyridin-2-yl)methyl)thio)-4-(4-(3,5-difluoro-4-methylphenyl)-1H-1,2,3-triazol-1-yl)-2-(hydroxymethyl)-5-methoxytetrahydro-2H-pyran-3-ol] | – | 2.43 | 0.04 | – | –
4 | CO[C@@H]1[C@@H](n2cc(-c3cc(F)c(C)c(F)c3)nn2)[C@@H](O)[C@@H](CO)O[C@H]1S[C@@H](c1ncccc1C)C1(O)CCC(F)(F)CC1 [Example 3.44.126S.I., (2R,3R,4S,5R,6S)-6-(((S)-(4,4-Difluoro-1-hydroxycyclohexyl)(3-methylpyridin-2-yl)methyl)thio)-4-(4-(3,5-difluoro-4-methylphenyl)-1H-1,2,3-triazol-1-yl)-2-(hydroxymethyl)-5-methoxytetrahydro-2H-pyran-3-ol] | – | 20 | 1.16 | – | –
5 | CC(C)(O)C(S[C@@H]1O[C@H](CO)[C@H](O)[C@H](n2cc(-c3ccc4ccccc4c3)nn2)[C@H]1O)c1ccccc1C(F)(F)F (stereo partly drawn) [Example 4.31.112, (2S,3R,4S,5R,6R)-2-((2-Hydroxy-2-methyl-1-(2-(trifluoromethyl)phenyl)propyl)thio)-6-(hydroxymethyl)-4-(4-(naphthalen-2-yl)-1H-1,2,3-triazol-1-yl)tetrahydro-2H-pyran-3,5-diol] | 2.24 | 2.27 | – | – | –
6 | CC(C)(O)C(S[C@@H]1O[C@H](CO)[C@H](O)[C@H](n2cc(-c3ccc(C#N)c(F)c3)nn2)[C@H]1O)c1ccccc1C(F)(F)F (stereo partly drawn) [Example 5.31.112., 4-(1-((2S,3R,4S,5R,6R)-3,5-Dihydroxy-2-((2-hydroxy-2-methyl-1-(2-(trifluoromethyl)phenyl)propyl)thio)-6-(hydroxymethyl)tetrahydro-2H-pyran-4-yl)-1H-1,2,3-triazol-4-yl)-2-fluorobenzonitrile] | 1.5 | 3.58 | – | – | –
7 | CO[C@@H]1[C@@H](n2cc(-c3cc(F)c(Cl)c(F)c3)nn2)[C@@H](O)[C@@H](CO)O[C@H]1SC(c1ncccc1C)C1(O)CCC(F)(F)CC1 (stereo partly drawn) [Example 11.44.126.I., (2R,3R,4S,5R,6S)-4-(4-(4-Chloro-3,5-difluorophenyl)-1H-1,2,3-triazol-1-yl)-6-(((4,4-difluoro-1-hydroxycyclohexyl)(3-methylpyridin-2-yl)methyl)thio)-2-(hydroxymethyl)-5-methoxytetrahydro-2H-pyran-3-ol] | – | 2.43 | 0.09 | – | –
8 | CO[C@@H]1[C@@H](n2cc(-c3ccc(Br)c(F)c3)nn2)[C@@H](O)[C@@H](CO)O[C@H]1SC(c1ncccc1C)C1(O)CCC(F)(F)CC1 (stereo partly drawn) [Example 12.44.126.I., (2R,3R,4S,5R,6S)-4-(4-(4-Bromo-3-fluorophenyl)-1H-1,2,3-triazol-1-yl)-6-(((4,4-difluoro-1-hydroxycyclohexyl)(3-methylpyridin-2-yl)methyl)thio)-2-(hydroxymethyl)-5-methoxytetrahydro-2H-pyran-3-ol] | – | 3.24 | 0.19 | – | –
9 | CO[C@@H]1[C@@H](n2cc(-c3ccc(F)c(F)c3)nn2)[C@@H](O)[C@@H](CO)O[C@H]1SC(c1ncccc1C)C1(O)CCC(F)(F)CC1 (stereo partly drawn) [Example 16.44.126.I., (2R,3R,4S,5R,6S)-6-(((4,4-Difluoro-1-hydroxycyclohexyl)(3-methylpyridin-2-yl)methyl)thio)-4-(4-(3,4-difluorophenyl)-1H-1,2,3-triazol-1-yl)-2-(hydroxymethyl)-5-methoxytetrahydro-2H-pyran-3-ol] | – | 0.73 | 0.09 | – | –
10 | CO[C@@H]1[C@@H](n2cc(-c3ccc(F)c(F)c3)nn2)[C@@H](O)[C@@H](CO)O[C@H]1S[C@H](c1ncccc1C)C1(O)CCC(F)(F)CC1 [Example 16.44.126R.I., (2R,3R,4S,5R,6S)-6-(((R)-(4,4-Difluoro-1-hydroxycyclohexyl)(3-methylpyridin-2-yl)methyl)thio)-4-(4-(3,4-difluorophenyl)-1H-1,2,3-triazol-1-yl)-2-(hydroxymethyl)-5-methoxytetrahydro-2H-pyran-3-ol] | – | 0.57 | 0.08 | – | –
11 | CO[C@@H]1[C@@H](n2cc(-c3ccc(F)c(F)c3)nn2)[C@@H](O)[C@@H](CO)O[C@H]1S[C@@H](c1ncccc1C)C1(O)CCC(F)(F)CC1 [Example 16.44.126S.I., (2R,3R,4S,5R,6S)-6-(((S)-(4,4-Difluoro-1-hydroxycyclohexyl)(3-methylpyridin-2-yl)methyl)thio)-4-(4-(3,4-difluorophenyl)-1H-1,2,3-triazol-1-yl)-2-(hydroxymethyl)-5-methoxytetrahydro-2H-pyran-3-ol] | – | 54.2 | 1.87 | – | –
12 | CO[C@@H]1[C@@H](n2cc(-c3cc(F)c(Cl)c(Cl)c3)nn2)[C@@H](O)[C@@H](CO)O[C@H]1SC(c1ncccc1C)C1(O)CCC(F)(F)CC1 (stereo partly drawn) [Example 17.44.126.I., (2R,3R,4S,5R,6S)-4-(4-(3,4-Dichloro-5-fluorophenyl)-1H-1,2,3-triazol-1-yl)-6-(((4,4-difluoro-1-hydroxycyclohexyl)(3-methylpyridin-2-yl)methyl)thio)-2-(hydroxymethyl)-5-methoxytetrahydro-2H-pyran-3-ol] | – | 1.68 | 0.14 | – | –
13 | CO[C@@H]1[C@@H](n2cc(-c3cc(F)c(Br)c(F)c3)nn2)[C@@H](O)[C@@H](CO)O[C@H]1SC(c1ncccc1C)C1(O)CCC(F)(F)CC1 (stereo partly drawn) [Example 18.44.126.I., (2R,3R,4S,5R,6S)-4-(4-(4-Bromo-3,5-difluorophenyl)-1H-1,2,3-triazol-1-yl)-6-(((4,4-difluoro-1-hydroxycyclohexyl)(3-methylpyridin-2-yl)methyl)thio)-2-(hydroxymethyl)-5-methoxytetrahydro-2H-pyran-3-ol] | – | 3.47 | 0.12 | – | –
14 | CO[C@@H]1[C@@H](n2cc(-c3ccc(Cl)c(F)c3F)nn2)[C@@H](O)[C@@H](CO)O[C@H]1SC(c1ncccc1C)C1(O)CCC(F)(F)CC1 (stereo partly drawn) [Example 22.44.126.I., (2R,3R,4S,5R,6S)-4-(4-(4-Chloro-2,3-difluorophenyl)-1H-1,2,3-triazol-1-yl)-6-(((4,4-difluoro-1-hydroxycyclohexyl)(3-methylpyridin-2-yl)methyl)thio)-2-(hydroxymethyl)-5-methoxytetrahydro-2H-pyran-3-ol] | – | 0.92 | 0.07 | – | –
15 | CO[C@@H]1[C@@H](n2cc(-c3ccc(C)c(F)c3F)nn2)[C@@H](O)[C@@H](CO)O[C@H]1SC(c1ncccc1C)C1(O)CCC(F)(F)CC1 (stereo partly drawn) [Example 23.44.126.I., (2R,3R,4S,5R,6S)-6-(((4,4-Difluoro-1-hydroxycyclohexyl)(3-methylpyridin-2-yl)methyl)thio)-4-(4-(2,3-difluoro-4-methylphenyl)-1H-1,2,3-triazol-1-yl)-2-(hydroxymethyl)-5-methoxytetrahydro-2H-pyran-3-ol] | – | 0.55 | 0.05 | – | –
16 | (2R,3R,4S,5R,6S)-6-(((R)-(5-Cyclopropyl-3-methylisoxazol-4-yl)(1-hydroxycyclohexyl)methyl)thio)-2-(hydroxymethyl)-5-methoxy-4-(4-(3,4,5-trifluorophenyl)-1H-1,2,3-triazol-1-yl)tetrahydro-2H-pyran-3-ol [Example 2.39.128R.I.] | – | 2.36 | – | 0.3 | –
17 | (2S,3R,4S,5R,6R)-2-(((2,3-Dichlorophenyl)(4,4-difluoro-1-hydroxycyclohexyl)methyl)thio)-6-(hydroxymethyl)-4-(4-(3,4,5-trifluorophenyl)-1H-1,2,3-triazol-1-yl)tetrahydro-2H-pyran-3,5-diol [Example 2.44.113.] | – | 2.35 | – | – | 0.36
18 | (2S,3R,4S,5R,6R)-2-(((3,3-Difluoro-1-hydroxycyclobutyl)(3-(trifluoromethyl)pyridin-2-yl)methyl)thio)-6-(hydroxymethyl)-4-(4-(3,4,5-trifluorophenyl)-1H-1,2,3-triazol-1-yl)tetrahydro-2H-pyran-3,5-diol [Example 2.35.125.] | – | 1.46 | – | – | 0.32
19 | (2S,3R,4S,5R,6R)-2-(((4-Hydroxy-2,2,6,6-tetramethyltetrahydro-2H-pyran-4-yl)(2-(trifluoromethyl)phenyl)methyl)thio)-6-(hydroxymethyl)-4-(4-(3,4,5-trifluorophenyl)-1H-1,2,3-triazol-1-yl)tetrahydro-2H-pyran-3,5-diol [Example 2.42.102.] | – | 18.5 | – | – | 0.38
